Three compounds from patent US20250276009A1, “Therapeutic use of hydrogen sulfide in frostbite injury” ([(The)] London Health Sciences Centre Research Inc., priority 2024, published 2025) can be followed below.

For test [1], the system named is frostbite injury on the dorsal skin of C57BL/6 mice. As to the kind of experiment: Histopathological scoring (H&E) of frostbite wound tissue, day 15. It counts as in vivo, C57BL/6 mice (Mus musculus). The conditions noted are these: for chronic inflammation (histological score 0-3) vs vehicle control: 200 μmol/kg GYY4137 or 150 μM STS; for progress of frostbite wound healing phase (histopathology, collective): daily topical in vehicle cream, day 15. As for the experimental part: The formalin-fixed skin tissue samples were embedded in paraffin blocks and sectioned at 8-μm thick on a microtome and collected on SuperFrost Plus® glass slides (J1800AMNZ, Thermo Fisher Scientific Inc., Germany). Histology was performed on the tissue sections using hematoxylin and eosin (H&E) staining to visualize general tissue morphology and assess the degree of tissue injury. A modified version of a previously developed histological scoring system established by Abramov et al was used for this study. The histopathological scoring was assessed blindly by a dermatopathologist for 5 parameters of healing (acute inflammation, chronic inflammation, amount of granulation tissue, fibroblast maturation and re-epithelialization) and assigned a score as per the following scheme: 0=None; 1=Scant; 2=Moderate; 3=Abundant. Acute inflammation was scored based on the presence of neutrophils while chronic inflammation was evaluated based on the presence of plasma cells and monocytes. Fibroblast maturation was determined on the basis of shape and alignment of these cells.

For the next test, the system named is CD31. As to the kind of experiment: Immunofluorescence staining of frostbite wound tissue, day 15: vascularization and angiogenesis marker. The test is classed as in vivo, C57BL/6 mice (Mus musculus). To be noted: for angiogenesis compared to vehicle control: daily topical in vehicle cream, day 15, p<0.01.
Test [2] relates to frostbite injury on the dorsal skin of C57BL/6 mice. Description: Frostbite wound size / wound healing after daily topical application of H2S donor in vehicle cream. The test is classed as in vivo, C57BL/6 mice (Mus musculus). The conditions noted are these: for reduction of frostbite wound from day 4 to day 15 versus vehicle control: 150 μM STS or 200 μmol/kg GYY4137 in hyaluronan/phosphatidylethanolamine vehicle cream; for reduction of frostbite wound from day 4 to day 15 versus vehicle control / frostbite wound size compared to vehicle-treated control mice: daily topical; for frostbite wound healing compared to vehicle control group: daily topical in vehicle cream until day 15. The text has this: The Animal Use Committee of the University of Western Ontario approved all experimental procedures. The experimental procedures were considered as Category D from the Canadian Council of Animal Care's Categories of Invasiveness for Animal Experiments. A total of 25 […] mice aged between 8-10 weeks old were obtained from Charles River Canada (Senneville, Quebec, Canada) and housed 5 per cage under a 12-hour light/dark cycle at the Health Sciences Animal Care Facility at the University of Western Ontario (London, Ontario, Canada). Mice were randomly assigned to 5 groups being healthy control (n=5), crush control (n=5), vehicle control (n=5), 200 nM AP39 (n=5) and 1 μM AP39 (n=5).
To ease the process of skin preparation, mice were initially anesthetized with a combination of 20 mg/ml xylazine and 100 mg/mL ketamine intraperitoneally, and the dorsal fur of the animals were shaved using electric clippers from the top of the hind legs to the base of the neck. A depilatory cream was then used to remove any fur still remaining. General anesthesia was maintained by inhalation of 5% isoflurane and oxygen delivered at 400 mL/minute to minimize the time of recovery post-anesthesia. Following complete fur removal, the skin of the animal was cleaned completely of the hair removal cream using an alcohol prep pad. Next, a silicone sheet was used as a template to trace a uniform circle on the surface of the skin using a permanent marker. The circular outline on the back of the animal was used as a guide during frostbite injury (see FIGS. 1A to 1E).
The vehicle cream containing hyaluronan and phosphatidylethanolamine (referred to as HEPE) as active ingredients, was provided by Dr. Eva Turley, and allowed for delivery of AP39 to the vascularized layers of the dermis. AP39 was generously provided by Dr. Matthew Whiteman (Exeter, UK) and diluted to a stock concentration of 1 mM in DMSO. […] To prepare the cream+H2S donor compound, the H2S donor was added via micropipette combined by stirring and subsequent mixing using a vortex device to final concentrations of 200 nM, 1 µM and 150 μM.

For another test, the system named is cleaved caspase-3. Description: Immunofluorescence staining of frostbite wound tissue, day 15: apoptosis marker. To be noted: daily topical in vehicle cream, day 15, vs vehicle control. It counts as in vivo, C57BL/6 mice (Mus musculus).
A further test relates to KI-67. Description: Immunofluorescence staining of frostbite wound tissue, day 15: proliferation marker. The test is classed as in vivo, C57BL/6 mice (Mus musculus). The conditions noted are these: for cell proliferation compared to vehicle control: daily topical in vehicle cream, day 15, p<0.001.
The next test has as its system fibronectin. Description: Immunofluorescence staining of frostbite wound tissue, day 15: granulation tissue marker. The test is classed as in vivo, C57BL/6 mice (Mus musculus). The conditions noted are these: for granulation tissue formation compared to vehicle control: daily topical in vehicle cream, day 15, p<0.001; for fibronectin expression: day 15.
A further test deals with CD163. As to the kind of experiment: Immunofluorescence staining of frostbite wound tissue, day 15: macrophage-specific marker. The test is classed as in vivo, C57BL/6 mice (Mus musculus). To be noted: for CD163 expression: day 15.
The test system of another test is cytokeratin. The conditions noted are these: day 15.
The mark [3] stands for this setting: 150 μM STS in Aveeno vs Aveeno without STS.
[4] abbreviates: 150 μM STS in Dove vs Dove without STS.
Where [5] appears, read: 150 μM STS in Neutrogena vs Neutrogena without STS.
Where [6] appears, read: 150 μM STS in Nivea vs Nivea without STS.
[7] abbreviates: 150 μM STS with Nivea, vs Nivea alone.
The mark [8] stands for this setting: 1 μM AP39 vs 200 nM AP39 and vehicle control, day 15, p<0.05.
Setting [9] is: 1 μM AP39, relative to 200 nM AP39, day 15, p<0.05.

Read-outs that look alike come from different tables or passages of the source.

Method for CD163: (§1) Based on a previously validated model [1], 100% ceramic magnets (diameter 18.0 mm, thickness 5.0 mm, weight 4.5 g) were used to induce frostbite injury. Magnets were frozen in dry ice (−80° C.) prior to animal skin preparation. The dorsal skin of C57BL/6 mice (Mus musculus) was pinched to create a skin fold and a silicone sheet was placed underneath as illustrated in FIG. 1D. The silicone sheet acted as a barrier to prevent the mice from possible systemic hypothermia while creating a precise injury and maximizing survival. Two frozen magnets were then placed on the skin from opposite sides of the skin fold such that they adhered with the middle of the circle outline at the peak of the fold's center as described by Auerbach et al., [1] and illustrated in FIG. 1D. After 1 minute, the magnets were removed and new frozen magnets simultaneously placed in order to keep the freezing temperature of the magnets consistent and ensured that no thawing of the skin occurred. A total of 3 magnet exchange cycles occurred in order to induce frostbite injury to the mice for 3 minutes after which the skin was allowed to thaw completely. […] The animals were placed on a heating pad set to 37° C. to mitigate the risk of death due to systemic hypothermia. Upon induction of frostbite injury, the mice were randomly assigned to the following groups: vehicle cream control, 200 nM AP39 plus vehicle cream, 1 μM AP39 plus vehicle cream, 150 μM STS plus vehicle cream, 200 μmol/kg GYY4137 plus vehicle cream, and received daily topical application of vehicle cream without H2S donor, vehicle cream containing 200 nM AP39 (200 μL), vehicle cream containing 1 μM AP39 (200 μL), vehicle cream containing 150 μM STS (200 μL) and vehicle cream containing 200 μmol/kg GYY4137 (200 μL) respectively until time of sacrifice.
(§2) Post-procedure analgesia included administration of meloxicam at 1 mg/kg/day for 3 days. Another group of mice that received no frostbite injury or room temperature magnet placement served as healthy controls. All groups of mice were sacrificed by CO2 euthanasia on day 15 after frostbite induction or room temperature magnet placement, and samples of the injured dorsal skin tissue were collected and stored in 10% neutral buffered formalin for histopathological analysis. The animals were euthanized on day 15 because this is the time point at which markers of wound healing were expected to be best seen in the wound as previously reported [5].
(§3) Immunofluorescence staining was performed to detect the expression of cleaved caspase-3 (1:100; a marker for apoptosis and is being used to assess frostbite damage), CD31 (1:100; a marker of vascularization and angiogenesis, as it is found on early endothelial cells), KI-67 (1:50; a marker of proliferation, which is abundant in a healing wound as granulation tissue forms and re-epithelialization occurs), fibronectin (1:100; secreted by fibroblasts to generate granulation tissue, which is the new connective tissue that covers a wound.), cytokeratin (1:200; a marker of differentiation and proliferation of keratinocytes, which are important for re-epithelialization of a wound) and CD163 (1:200; a macrophage-specific marker during wound healing) [7, 8]. These antibodies were purchased from Abcam in Toronto, Canada to examine the degree of frostbite injury as well as important healing stages including angiogenesis, re-epithelialization, granulation tissue formation and inflammation. […]
Method for CD31: as §1, §2
(§4) Immunofluorescence staining was performed to detect the expression of cleaved caspase-3 (1:100; a marker for apoptosis and is being used to assess frostbite damage), CD31 (1:100; a marker of vascularization and angiogenesis, as it is found on early endothelial cells), KI-67 (1:50; a marker of proliferation, which is abundant in a healing wound as granulation tissue forms and re-epithelialization occurs), fibronectin (1:100; secreted by fibroblasts to generate granulation tissue, which is the new connective tissue that covers a wound.), cytokeratin (1:200; a marker of differentiation and proliferation of keratinocytes, which are important for re-epithelialization of a wound) and CD163 (1:200; a macrophage-specific marker during wound healing) [7, 8]. These antibodies were purchased from Abcam in Toronto, Canada to examine the degree of frostbite injury as well as important healing stages including angiogenesis, re-epithelialization, granulation tissue formation and inflammation. Following a rehydration step in xylene and decreasing series of alcohol (100%, 95%, 70% and 50%) and de-ionized water, the tissue sections were washed with 1× phosphate buffered saline (PBS) for 10 minutes.
Method for KI-67: as §1, §2, §3
Method for cleaved caspase-3: as §1
Another group of mice that received no frostbite injury or room temperature magnet placement served as healthy controls. […]
Method for cytokeratin: as §1
Post-procedure analgesia included administration of meloxicam at 1 mg/kg/day for 3 days. Another group of mice that received no frostbite injury or room temperature magnet placement served as healthy controls. All groups of mice were sacrificed by CO2 euthanasia on day 15 after frostbite induction or room temperature magnet placement, and samples of the injured dorsal skin tissue were collected and stored in 10% neutral buffered formalin for histopathological analysis. The animals were euthanized on day 15 because this is the time point at which markers of wound healing were expected to be best seen in the wound as previously reported [5]. […]
Method for fibronectin: as §1, §2, §4

Turning to `C1COCCN1.COc1ccc(P(=S)(S)N2CCOCC2)cc1` (centres unmarked) [GYY4137], the “chronic inflammation (histological score 0-3) vs vehicle control” value in test [1] (day 15, p>0.05) is given as “did not show significant difference”. Besides, the “progress of frostbite wound healing phase (histopathology, collective)” value (from here on “progress … (histopathology, collective)”) in test [1] was “hastened frostbite wound healing from inflammatory to proliferative phase”. Moreover, in the test on CD31, the “angiogenesis compared to vehicle control” value was “improved”. In addition, in test [2], the “reduction of frostbite wound from day 4 to day 15 versus vehicle control” value is “slightly smaller than that of the vehicle control” and the “frostbite wound healing compared to vehicle control group” value is recorded as “improved wound healing”. The “apoptosis in frostbite injury (cleaved caspase-3 expression)” value (from here on “apoptosis in frostbite injury”) in the test with cleaved caspase-3 is on record as “no effect”. Moreover, the “cell proliferation compared to vehicle control” value with KI-67 is reported as “improved”. Moreover, in the test on fibronectin, the “granulation tissue formation compared to vehicle control” value is reported as “improved”.
`O=S([O-])([O-])=S.[Na+].[Na+]` [STS, sodium thiosulfate]: the “chronic inflammation (histological score 0-3) vs vehicle control” value in test [1] (day 15, p>0.05) is reported as “did not show significant difference”. Besides, the “progress … (histopathology, collective)” value in test [1] is “hastened frostbite wound healing from inflammatory to proliferative phase”. The CD163 expression entry in the test on CD163 (setting [3]) is on record as “significant increase”; in the test with CD163 (setting [4]), “significant increase”; in the test on CD163 (setting [5]), “decrease in CD163 expression albeit not significant”; in the test with CD163 (setting [6]), “significant increase”. For the same compound, the CD31 expression result with CD31 (150 μM STS in Aveeno vs Aveeno without STS, day 15) is “significant upregulation”; with CD31 (150 μM STS in Dove vs Dove without STS, day 15), “significant upregulation”; in the test with CD31 (150 μM STS in Neutrogena vs Neutrogena without STS, day 15), “No significant change”; in the test with CD31 (150 μM STS in Nivea vs Nivea without STS, day 15), “significant upregulation”. Besides, the “angiogenesis compared to vehicle control” value with CD31 is “improved”. In addition, the “wound size compared to the corresponding vehicle control without STS” value in test [2] (150 μM STS in commercially available creams (Aveeno, Dove, Neutrogena, Nivea), day 4 to day 15) was “progressively reduced wound size”. Also, the “reduction of frostbite wound from day 4 to day 15 versus vehicle control” value in test [2] is given as “slightly smaller than that of the vehicle control”. For the same compound, the “wound size, day 15” value in test [2] (150 μM STS with Aveeno, vs Aveeno alone) is reported as “reduced wound size”; in test [2] (150 μM STS with Dove, vs Dove alone), “reduced wound size”; in test [2] (setting [7]), “reduced wound size”. In addition, in test [2] (setting [7]), the “wound size, day 4” value was “reduced wound size”. For the same compound, the “wound healing, comparison of delivery creams” value in test [2] (STS via Aveeno and Nivea creams compared to Dove and Neutrogena) is “improved wound healing compared to Dove® and Neutrogena®”. Moreover, in test [2], the “frostbite wound healing compared to vehicle control group” value is listed as “improved wound healing”. Moreover, the cytokeratin expression result is “significantly increased” in the test with cytokeratin (setting [3]), “No significant change” with cytokeratin (setting [4]), “significantly increased” with cytokeratin (setting [5]) and “significantly increased” with cytokeratin (setting [6]). Moreover, the “apoptosis in frostbite injury” value with cleaved caspase-3 is listed as “no effect”. Also, the “cell proliferation compared to vehicle control” value in the test on KI-67 is listed as “improved”. The fibronectin expression result in the test on fibronectin (setting [3]) is “significantly increased”; in the test with fibronectin (setting [4]) it was “did not increase fibronectin expression significantly”; in the test on fibronectin (setting [5]) it was “did not increase fibronectin expression significantly”; with fibronectin (setting [6]), “significantly increased”. In the test on fibronectin, the “granulation tissue formation compared to vehicle control” value is recorded as “improved”.
Consider `O=C(CCCCCCCCC[P+](c1ccccc1)(c1ccccc1)c1ccccc1)Oc1ccc(-c2cc(=S)ss2)cc1.[Br-]` [AP39, (10-oxo-10-(4-(3-thioxo-3H-1,2-dithiol-5-yl)phenoxy)decyl)triphenylphosphonium bromide], for which the “chronic inflammation (histological score 0-3)” value is “did not change” in test [1] (200 nM AP39, day 15, p>0.05) and “did not change” in test [1] (1 μM AP39, day 15, p>0.05). In addition, in test [1] (200 nM AP39 vs 1 μM AP39 and vehicle control, day 15, p<0.05), the “fibroblast maturation (histological score 0-3)” value was “highest”. The “acute inflammation (histological score 0-3)” value in test [1] (setting [8]) was “significantly greater”. Also, the “amount of granulation tissue (histological score 0-3)” value in test [1] (setting [8]) is “markedly increased”. Moreover, the “wound re-epithelialization (histological score 0-3)” value in test [1] (AP39 (200 nM and 1 μM) vs vehicle control, day 15, p>0.05) is “increased wound re-epithelialization (epithelial restitution) albeit not significantly different”. In addition, the “progress … (histopathology, collective)” value in test [1] was “hastened frostbite wound healing from inflammatory to proliferative phase”. Further, the “CD163 expression (M2-like anti-inflammatory macrophages)” value with CD163 (200 nM AP39, day 15) is reported as “increased anti-inflammatory activity”. Besides, the CD31 expression result in the test on CD31 (200 nM AP39, day 15, p<0.05) is listed as “markedly expressed”; in the test on CD31 (setting [9]) it was “significantly reduced”. In the test with CD31, the “angiogenesis compared to vehicle control” value is “improved”. Moreover, the “frostbite wound size compared to vehicle-treated control mice” value in test [2] (200 nM AP39 in vehicle cream containing hyaluronan and phosphatidylethanolamine, day 4 to day 15) is reported as “progressively reduced wound size”; in test [2] (1 μM AP39 in vehicle cream containing hyaluronan and phosphatidylethanolamine, day 4 to day 15) it was “progressively reduced wound size”. Moreover, in test [2], the “frostbite wound healing compared to vehicle control group” value is listed as “improved wound healing”. Moreover, in the test with cleaved caspase-3, the “apoptosis in frostbite injury” value is reported as “no effect”. Besides, the KI-67 expression entry is reported as “markedly expressed” in the test on KI-67 (200 nM AP39, day 15, p<0.05) and “significantly reduced” in the test with KI-67 (setting [9]). Also, the “cell proliferation compared to vehicle control” value with KI-67 is “improved”. In addition, the “fibronectin expression compared to vehicle control mice” value with fibronectin (200 nM AP39, day 15) is listed as “significantly increased expression”; in the test on fibronectin (1 μM AP39, day 15) it was “significantly increased expression”. The “granulation tissue formation compared to vehicle control” value with fibronectin was “improved”.
